Experimental data: patent US8883784B2, “Apoptosis-inducing agents for the treatment of cancer and immune and autoimmune diseases” (AbbVie Inc., priority 2012, dated 2014)
pEC50, pKi: −log10 of the molar value.

Legend:
GST-Bcl-xL = GST-Bcl-xL (Homo sapiens (Human), UniProt Q07817); experiment: TR-FRET binding assay, competition with F-Bak for Bcl-xL; conditions: competition with F-Bak probe, GST-Bcl-xL 1 nM
Procedure: Determination of the utility of compounds having Formula (I) as binders to and inhibitors of anti-apoptotic Bcl-xL proteins was performed using the Time Resolved-Fluorescence Resonance Energy Transfer (TR-FRET) Assay. Tb-anti-GST antibody was purchased from Invitrogen (Catalog No. PV4216).
The measurement of competition of compounds of Formula (I) with F-Bak for a Bcl-2 family protein (Bcl-xL) binding site using a Time Resolved Fluorescence Resonance Energy Transfer (TR-FRET) binding assay:
Test compounds were serially diluted in DMSO starting at 50 μM (2× starting concentration; 10% DMSO) and 10 μL transferred into a 384-well plate.
The samples are then mixed on a shaker for 1 minute then incubated for an additional 2 hours at room temperature. For each assay plate, a probe/antibody and protein/antibody/probe mixture were included as a negative and a positive control, respectively. Fluorescence was measured on the ENVISION plate reader (Perkin Elmer) using a 340/35 nm excitation filter and 520/525 (F-Bak) and 495/510 nm (Tb-labeled anti-his antibody) emission filters. Dissociation constants (Ki) were determined using Wang's equation (Wang, Z. X. An 20 exact mathematical expression for describing competitive binding of two different ligands to protein molecule. FEBS Lett. 1995 360:111-114). The TR-FRET assay can be performed in the presence of varying concentrations of human serum (HS) or fetal bovine serum (FBS).

[1] = system: mouse FL5.12 cells transfected with Bcl-XL; experiment: FL5.12 cellular assay (cell viability, CellTiter-Glo); type: cell-based; conditions: IL-3-depleted, 3% FBS assay media, 24 hours, read-out: FL5.12 Bcl-xL, -IL3, EC 50
Procedure: The efficacy of the compounds of Formula (I) can also be determined in cell-based killing assays using a variety of cell lines and mouse tumor models. For example, their activity on cell viability can be assessed on a panel of cultured tumorigenic and non-tumorigenic cell lines, as well as primary mouse or human cell populations. In one exemplary set of conditions, mouse FL5.12 cells transfected with Bcl-XL were cultured under standard conditions in RPMI with 2 mM glutamine, 1% 100 mM sodium pyruvate, 2% 1 M HEPES, 4 μL/L of β-mercaptoethanol, 1% penicillinstreptomycin, 10% FBS, and 10% WEHI-3B conditioned media (for IL-3). For assaying the compound activity, the cells were exchanged into an IL-3-depleted deprivation media, which was identical to the growth media except for the absence of FBS and WEHI-3B conditional media, for 2 days. Then the cells were exchanged to 3% FBS assay media (RPMI with 2 mM glutamine, 1% 100 mM sodium pyruvate, 2% 1 M HEPES, 4 μL/L of β-mercaptoethanol, 1% penicillinstreptomycin, 3% FBS). Compounds in series dilutions were added, and the cells were cultured for 24 hours. Cell viability was assayed using the CellTiter-Glo assay (Promega Corp., Madison, Wis.) according to the manufacturer instructions. Individual determinations were the result of duplicate values.

GST-Bcl-xL, sequence (Q07817 whole entry): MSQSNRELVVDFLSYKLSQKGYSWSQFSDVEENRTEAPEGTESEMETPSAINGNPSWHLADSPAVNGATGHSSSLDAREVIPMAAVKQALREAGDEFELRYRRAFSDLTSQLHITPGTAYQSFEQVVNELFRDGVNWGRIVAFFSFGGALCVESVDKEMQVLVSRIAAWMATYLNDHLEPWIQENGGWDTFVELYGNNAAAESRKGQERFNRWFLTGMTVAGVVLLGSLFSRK

SMILES: CN(C)CCCNc1ccc(S(=O)(=O)NC(=O)c2nc(N3CCc4cccc(C(=O)Nc5nc6ccccc6s5)c4C3)sc2CCc2ccccc2)cc1[N+](=O)[O-] [Example 13, N-(1,3-benzothiazol-2-yl)-2-[4-{[(4-{[3-(dimethylamino)propyl]amino}-3-nitrophenyl)sulfonyl]carbamoyl}-5-(2-phenylethyl)-1,3-thiazol-2-yl]-1,2,3,4-tetrahydroisoquinoline-8-carboxamide]
- pKi (GST-Bcl-xL): 9.10
- pEC50 [1]: 7.03

SMILES: CN(C)CCCNc1ccc(S(=O)(=O)NC(=O)c2nc(N3CCc4cccc(C(=O)Nc5nc6ccccc6s5)c4C3)sc2CCCc2ccccc2)cc1[N+](=O)[O-] [Example 15, N-(1,3-benzothiazol-2-yl)-2-[4-{[(4-{[3-(dimethylamino)propyl]amino}-3-nitrophenyl)sulfonyl]carbamoyl}-5-(3-phenylpropyl)-1,3-thiazol-2-yl]-1,2,3,4-tetrahydroisoquinoline-8-carboxamide]
- pKi (GST-Bcl-xL): 8.30

SMILES: O=C(NS(=O)(=O)c1ccc(N[C@H](CCO)CSc2ccccc2)c(S(=O)(=O)C(F)(F)F)c1)c1csc(N2CCc3cccc(C(=O)Nc4nc5ccccc5s4)c3C2)n1 [Example 14, N-(1,3-benzothiazol-2-yl)-2-(4-{[(4-{[(2R)-4-hydroxy-1-(phenylsulfanyl)butan-2-yl]amino}-3-[(trifluoromethyl)sulfonyl]phenyl)sulfonyl]carbamoyl}-1,3-thiazol-2-yl)-1,2,3,4-tetrahydroisoquinoline-8-carboxamide]
- pKi (GST-Bcl-xL): 9.70

SMILES: CN(C)CCCNc1ccc(S(=O)(=O)NC(=O)c2nc(N3CCc4cccc(C(=O)Nc5nc6ccccc6s5)c4C3)sc2Cc2ccccc2)cc1[N+](=O)[O-] [Example 9, N-(1,3-benzothiazol-2-yl)-2-(5-benzyl-4-{[(4-{[3-(dimethylamino)propyl]amino}-3-nitrophenyl)sulfonyl]carbamoyl}-1,3-thiazol-2-yl)-1,2,3,4-tetrahydroisoquinoline-8-carboxamide]
- pKi (GST-Bcl-xL): 7.39
- pEC50 [1]: < 6.00

SMILES: CN(C)CC[C@H](CSc1ccccc1)Nc1ccc(S(=O)(=O)NC(=O)c2csc(N3CCc4cccc(C(=O)Nc5nc6ccccc6s5)c4C3)n2)cc1[N+](=O)[O-] [Example 1, N-(1,3-benzothiazol-2-yl)-2-(4-{[(4-{[(2R)-4-(dimethylamino)-1-(phenylsulfanyl)butan-2-yl]amino}-3-nitrophenyl)sulfonyl]carbamoyl}-1,3-thiazol-2-yl)-1,2,3,4-tetrahydroisoquinoline-8-carboxamide]
- pKi (GST-Bcl-xL): 10.00
- pEC50 [1]: 7.25

SMILES: CN(C)CCCNc1ccc(S(=O)(=O)NC(=O)c2nc(N3CCc4cccc(C(=O)Nc5nc6ccccc6s5)c4C3)ccc2CCc2ccccc2)cc1[N+](=O)[O-] [Example 6, N-(1,3-benzothiazol-2-yl)-2-[6-{[(4-{[3-(dimethylamino)propyl]amino}-3-nitrophenyl)sulfonyl]carbamoyl}-5-(2-phenylethyl)pyridin-2-yl]-1,2,3,4-tetrahydroisoquinoline-8-carboxamide]
- pKi (GST-Bcl-xL): 7.77
- pEC50 [1]: < 6.00

SMILES: CN(C)CCCNc1ccc(S(=O)(=O)NC(=O)c2nc(N3CCc4cccc(C(=O)Nc5nc6ccccc6s5)c4C3)sc2CCc2ccccc2)cc1S(=O)(=O)C(F)(F)F [Example 11, N-(1,3-benzothiazol-2-yl)-2-[4-{[(4-{[3-(dimethylamino)propyl]amino}-3-[(trifluoromethyl)sulfonyl]phenyl)sulfonyl]carbamoyl}-5-(2-phenylethyl)-1,3-thiazol-2-yl]-1,2,3,4-tetrahydroisoquinoline-8-carboxamide]
- pKi (GST-Bcl-xL): 10.22
- pEC50 [1]: 7.66

SMILES: CN(C)CC[C@H](CSc1ccccc1)Nc1ccc(S(=O)(=O)NC(=O)c2csc(N3CCc4cccc(C(=O)Nc5nc6ccccc6s5)c4C3)n2)cc1S(=O)(=O)C(F)(F)F [Example 12, N-(1,3-benzothiazol-2-yl)-2-(4-{[(4-{[(2R)-4-(dimethylamino)-1-(phenylsulfanyl)butan-2-yl]amino}-3-[(trifluoromethyl)sulfonyl]phenyl)sulfonyl]carbamoyl}-1,3-thiazol-2-yl)-1,2,3,4-tetrahydroisoquinoline-8-carboxamide]
- pKi (GST-Bcl-xL): 10.40
- pEC50 [1]: 8.52

SMILES: O=C(NS(=O)(=O)c1ccc(N[C@H](CCN2CCOCC2)CSc2ccccc2)c(S(=O)(=O)C(F)(F)F)c1)c1csc(N2CCc3cccc(C(=O)Nc4nc5ccccc5s4)c3C2)n1 [Example 2, N-(1,3-benzothiazol-2-yl)-2-(4-{[(4-{[(2R)-4-(morpholin-4-yl)-1-(phenylsulfanyl)butan-2-yl]amino}-3-[(trifluoromethyl)sulfonyl]phenyl)sulfonyl]carbamoyl}-1,3-thiazol-2-yl)-1,2,3,4-tetrahydroisoquinoline-8-carboxamide]
- pKi (GST-Bcl-xL): 10.00
- pEC50 [1]: 7.92

SMILES: CN(C)CCCNc1ccc(S(=O)(=O)NC(=O)c2csc(N3CCc4cccc(C(=O)Nc5nc6ccccc6s5)c4C3)n2)cc1S(=O)(=O)C(F)(F)F [Example 7, N-(1,3-benzothiazol-2-yl)-2-(4-{[(4-{[3-(dimethylamino)propyl]amino}-3-[(trifluoromethyl)sulfonyl]phenyl)sulfonyl]carbamoyl}-1,3-thiazol-2-yl)-1,2,3,4-tetrahydroisoquinoline-8-carboxamide]
- pKi (GST-Bcl-xL): 8.77
- pEC50 [1]: < 6.00

SMILES: CN(C)CCCNc1ccc(S(=O)(=O)NC(=O)c2nc(N3CCc4cccc(C(=O)Nc5nc6ccccc6s5)c4C3)ccc2CCCc2ccccc2)cc1S(=O)(=O)C(F)(F)F [Example 5, N-(1,3-benzothiazol-2-yl)-2-[6-{[(4-{[3-(dimethylamino)propyl]amino}-3-[(trifluoromethyl)sulfonyl]phenyl)sulfonyl]carbamoyl}-5-(3-phenylpropyl)pyridin-2-yl]-1,2,3,4-tetrahydroisoquinoline-8-carboxamide]
- pKi (GST-Bcl-xL): 7.32
- pEC50 [1]: < 6.00

SMILES: O=C(NS(=O)(=O)c1ccc(N[C@H](CCN2CCOCC2)CSc2ccccc2)c(S(=O)(=O)C(F)(F)F)c1)c1cccc(N2CCc3cccc(C(=O)Nc4nc5ccccc5s4)c3C2)n1 [Example 3, N-(1,3-benzothiazol-2-yl)-2-(6-{[(4-{[(2R)-4-(morpholin-4-yl)-1-(phenylsulfanyl)butan-2-yl]amino}-3-[(trifluoromethyl)sulfonyl]phenyl)sulfonyl]carbamoyl}pyridin-2-yl)-1,2,3,4-tetrahydroisoquinoline-8-carboxamide]
- pKi (GST-Bcl-xL): 7.92
- pEC50 [1]: < 6.00

SMILES: CN(C)CCCNc1ccc(S(=O)(=O)NC(=O)c2nc(N3CCc4cccc(C(=O)Nc5nc6ccccc6s5)c4C3)ccc2CCCc2ccccc2)cc1[N+](=O)[O-] [Example 4, N-(1,3-benzothiazol-2-yl)-2-[6-{[(4-{[3-(dimethylamino)propyl]amino}-3-nitrophenyl)sulfonyl]carbamoyl}-5-(3-phenylpropyl)pyridin-2-yl]-1,2,3,4-tetrahydroisoquinoline-8-carboxamide]
- pKi (GST-Bcl-xL): 8.05
- pEC50 [1]: < 6.00

SMILES: O=C(NS(=O)(=O)c1ccc(N[C@H](CCN2CCOCC2)CSc2ccccc2)c([N+](=O)[O-])c1)c1csc(N2CCc3cccc(C(=O)Nc4nc5ccccc5s4)c3C2)n1 [Example 10, N-(1,3-benzothiazol-2-yl)-2-(4-{[(4-{[(2R)-4-(morpholin-4-yl)-1-(phenylsulfanyl)butan-2-yl]amino}-3-nitrophenyl)sulfonyl]carbamoyl}-1,3-thiazol-2-yl)-1,2,3,4-tetrahydroisoquinoline-8-carboxamide]
- pKi (GST-Bcl-xL): 9.85

SMILES: CN(C)CCCNc1ccc(S(=O)(=O)NC(=O)c2nc(N3CCc4cccc(C(=O)Nc5nc6ccccc6s5)c4C3)sc2Cc2ccccc2)cc1S(=O)(=O)C(F)(F)F [Example 8, N-(1,3-benzothiazol-2-yl)-2-(5-benzyl-4-{[(4-{[3-(dimethylamino)propyl]amino}-3-[(trifluoromethyl)sulfonyl]phenyl)sulfonyl]carbamoyl}-1,3-thiazol-2-yl)-1,2,3,4-tetrahydroisoquinoline-8-carboxamide]
- pKi (GST-Bcl-xL): 7.96
- pEC50 [1]: < 6.00
